# From US20070258972A1, “Combination of a Histone Deacetylase Inhibitor with a Death Receptor Ligand” (priority 2003, published 2007)
# Tests used:
# [1] = tested on: Jurkat and SKW 6.4 cells; test: Apoptosis assessment by annexin-V staining, Jurkat and SKW 6.4 cells; assay type: cell-based, human; conditions: 10-200 nM, 24 hours; more in Jurkat than in SKW 6.4 cells
# Experimental: After drug treatments, cells are resuspended in 100 μL of the staining solution containing annexin-V fluorescein and propidium iodide in a HEPES buffer (Annexin-V-FLUOS Staining Kit, Boehringer-Mannheim, and Indianapolis, Ind.). Following incubation at room temperature for 15 minutes, annexin V positive cells are estimated by flow cytometry, as previously described.
# [2] = tested on: HDAC; conditions: 5-250 nM; HeLa cell nuclear extracts; previously reported; cited from earlier work
# [3] = tested on: Jurkat and SKW 6.4 cells; test: Western analyses of proteins, Jurkat and SKW 6.4 cells; assay type: cell-based, human
# Experimental: (§1) Western analyses of DR4, DR5, Apo-2L, FADD, Caspase-8, c-FLIPL & S, BID, Caspase-9, Caspase-3, PARP, XIAP, clAP1, survivin and β-actin are performed using specific anti-sera or monoclonal antibodies according to previously reported protocols. Horizontal scanning densitometry was performed on Western blots by using acquisition into Adobe Photo Shop (Apple, Inc., Cupertino, Calif.) and analysis by the NIH Image Program (U.S. National Institutes of Health, Bethesda, Md.). The expression of β-actin was used as a control.
# [4] = tested on: primary AML blasts; test: Western analyses of proteins, primary AML blasts; assay type: cell-based, human
# Experimental: as §1
# [5] = tested on: DR5; test: DR5 expression on the cell membrane by flow cytometry, primary AML sample; assay type: cell-based, human
# [6] = tested on: DR5; test: DR5 cell-membrane expression by flow cytometry, Jurkat cells; assay type: cell-based, human
# [7] = tested on: SKW 6.4 and Jurkat cells; test: Flow cytometry analysis of cell cycle status; assay type: cell-based, human; conditions: 24 hours
# Experimental: The flow cytometric evaluation of the cell cycle status is performed according to a previously described method. The percentage of cells in the G1, S-phase, and G2/M phases are calculated using Multicycle software (Phoenix Flow Systems, San Diego, Calif.).
compound,measurement,setting,value
"O=C(/C=C/c1ccc(CN(CCO)CCc2c[nH]c3ccccc23)cc1)NO [LAQ824, N-hydroxy-3-[4-[[(2-hydroxyethyl)[2-(1H-indol-3-yl)ethyl]-amino]methyl]phenyl]-2E-2-propenamide]","apoptosis, positive staining for annexin V",[1],induces apoptosis in a dose-dependent manner
same,in vitro HDAC activity,[2],inhibits the in vitro HDAC activity in a dose-dependent manner
same,acetylation of histone H3 and histone H4,"[3]; 50 nM or 200 nM, 24 hours, Jurkat and SKW 6.4 cells",increased
same,intracellular levels of p27,"[3]; 50 nM, SKW 6.4 and Jurkat cells",increase
same,p27 levels,"[3]; 200 nM, both cell-types",attenuated
same,"Apo-2L/TRAIL, DR4 and DR5 levels","[3]; 24 hours, SKW 6.4 and Jurkat cells",induces
same,"levels of Bcl-xL, Bcl-2, XIAP, c-IAP and survivin",[3]; SKW 6.4 and Jurkat cells,attenuates
same,levels of FLIPL and FLIPS,[3]; SKW 6.4 and Jurkat cells,attenuates
same,levels of p21,[3]; SKW 6.4 cells,dose-dependent increase
same,DR4 and DR5 levels,[4],increases
same,levels of FLIPL and c-FLIPS,[4],down-regulates
same,acetylation of histones H3 and H4,"[4]; 100 nM or 250 nM, 24 hours",induces
same,DR5 expression on the cell membrane,"[5]; 100 nM LAQ824, baseline 17.5%",33.2 % of cells
same,DR5 expression on the cell membrane,"[5]; 250 nM LAQ824, baseline 17.5%",62.4 % of cells
same,cell-membrane expression of DR5,[6],induces
same,cells in the S phase of the cell cycle,[7],decline
same,percentage of cells in the G1 phase,[7],markedly increases
